The source of these data is patent publication EP3875590A1, “METHOD FOR PRODUCING ORGANIC COMPOUND AND CORYNEFORM BACTERIUM” (Green Earth Institute Co., Ltd., priority 2018, dated 2020).

The target in assay [1] is T1, valine dehydrogenase (Streptomyces fradiae, UniProt P40176).
T1 construct: His-tag (pET-15b vector-encoded, with thrombin site); made in house; host or cells: E. coli BL21 (DE3), strain GES1057, plasmid pGE1175 (pET-15b)
Kind of assay: oxidative deamination reaction activity against L-homoserine, crushed-cell solution expressing valine dehydrogenase. Type of assay: biochemical. The following applies: crushed cells of GES1057 (E. coli BL21 (DE3), pGE1175); same conditions as 4-6-(1): pH 10.0, 2.5 mM NAD^+, 50 mM L-homoserine. The procedure: (§1) Using this solution in which the bacterial cells were crushed, an oxidative deamination reaction activity against L-homoserine was measured. As the reaction conditions, an appropriately diluted solution in which the bacterial cells were crushed was mixed with 100 mM glycine-KCl-KOH (pH 10.0), 2.5 mM NAD^+, and 50 mM L-homoserine, and a continuous increase in absorption by NADH at 340 nm was measured using a Varioskan LUX (manufactured by Thermo Fisher Scientific Inc.). As a result, a specific activity of this solution in which the bacterial cells were crushed against L-homoserine was 0.21 U/mg of protein.
Transformation was performed using pGE1175 and using ECOSTM Competent E. coli BL21 (DE3) (manufactured by NIPPON GENE CO., LTD.) according to its instructions, and the obtained strain was designated as GES 1057. When a protein concentration in a solution, in which the cells were crushed and which was obtained by subjecting GES1057 to the same operation as that of GES 1007, was measured, it was 4.2 mg/mL.
As a result of measuring an oxidative deamination reaction activity against L-homoserine in the same manner as in 4-6-(1) using this solution in which the bacterial cells were crushed, a specific activity of this solution in which the bacterial cells were crushed against L-homoserine was 0.21 U/mg of protein.

The test system of assay [2] is leucine dehydrogenase. Kind of assay: oxidative deamination reaction activity against L-homoserine, crushed-cell solution expressing leucine dehydrogenase. Type of assay: biochemical, Lysinibacillus sphaericus. Particulars: crushed cells of GES1007 (E. coli BL21 (DE3), pGE1148); 100 mM glycine-KCl-KOH (pH 10.0), 2.5 mM NAD^+, 50 mM L-homoserine; NADH absorption at 340 nm. The procedure:
Transformation was performed using pGE1148 and using ECOSTM Competent E. coli BL21 (DE3) (manufactured by NIPPON GENE CO., LTD.) according to its instructions, and the obtained strain was designated as GES1007. GES1007 was inoculated into an LB agar medium containing 100 µg/mL of ampicillin under aseptic conditions, and culture was performed at 37°C. Bacterial cells grown on the agar medium were inoculated into 10 mL of an LB medium containing 100 µg/mL of ampicillin, and shaking culture was performed at 37°C to prepare a seed culture solution. This seed culture solution was inoculated into 100 mL of an LB medium containing 100 µg/mL of ampicillin and prepared in a 500 mL flask so that a turbidity was 0.1. Shaking was performed at 37°C, and culture was performed until a turbidity was 0.7. […] When a protein concentration in this solution in which the cells were crushed was measured, it was 12 mg/mL.
Using this solution in which the bacterial cells were crushed, an oxidative deamination reaction activity against L-homoserine was measured. As the reaction conditions, an appropriately diluted solution in which the bacterial cells were crushed was mixed with 100 mM glycine-KCl-KOH (pH 10.0), 2.5 mM NAD^+, and 50 mM L-homoserine, and a continuous increase in absorption by NADH at 340 nm was measured using a Varioskan LUX (manufactured by Thermo Fisher Scientific Inc.). […]

Assay [3] deals with T2, phenylalanine dehydrogenase (Pseudobacillus badius, UniProt Q59224).
T2 construct: His-tag (pET-15b vector-encoded, with thrombin site); made in house; host or cells: E. coli BL21 (DE3), strain GES1136, plasmid pGE1237 (pET-15b)
T2 sequence (Q59224 whole entry): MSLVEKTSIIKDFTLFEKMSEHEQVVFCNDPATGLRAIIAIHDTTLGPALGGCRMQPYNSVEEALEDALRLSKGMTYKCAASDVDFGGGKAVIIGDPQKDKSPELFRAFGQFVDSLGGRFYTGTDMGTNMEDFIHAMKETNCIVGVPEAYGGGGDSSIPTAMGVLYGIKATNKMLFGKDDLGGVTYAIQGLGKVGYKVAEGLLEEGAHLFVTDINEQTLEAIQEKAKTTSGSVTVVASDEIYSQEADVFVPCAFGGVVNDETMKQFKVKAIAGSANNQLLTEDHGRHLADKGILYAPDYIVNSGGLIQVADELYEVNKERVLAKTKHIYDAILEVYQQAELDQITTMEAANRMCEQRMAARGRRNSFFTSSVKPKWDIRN
Kind of assay: oxidative deamination reaction activity against L-homoserine, crushed-cell solution expressing phenylalanine dehydrogenase. The assay is classed as biochemical, Bacillus badius. The following applies: crushed cells of GES1136 (E. coli BL21 (DE3), pGE1237); same conditions as 4-6-(1): pH 10.0, 2.5 mM NAD^+, 50 mM L-homoserine. The method, then: as §1
Transformation was performed using pGE1237 and using ECOSTM Competent E. coli BL21 (DE3) (manufactured by NIPPON GENE CO., LTD.) according to its instructions, and the obtained strain was designated as GES 1136. When a protein concentration in a solution, in which the cells were crushed and which was obtained by subj ecting GES1136 to the same operation as that of GES 1007, was measured, it was 11 mg/mL.
As a result of measuring an oxidative deamination reaction activity against L-homoserine in the same manner as in 4-6-(1) using this solution in which the bacterial cells were crushed, a specific activity of this solution in which the bacterial cells were crushed against L-homoserine was 0.045 U/mg of protein.

Assay [4] concerns leucine dehydrogenase. The assay can be described thus: enzyme kinetics (Michaelis-Menten) of the reductive amination reaction of HOB with purified leucine dehydrogenase. Type of assay: biochemical, Lysinibacillus sphaericus. The following applies: 100 mM HEPES/KOH (pH 7.5), 200 mM ammonium chloride, 0.2 mM NADH, 3.7 µg/mL leucine dehydrogenase. The procedure:
The solution in which the bacterial cells were crushed and which was obtained in 4-6-(1) was subjected to a filtration treatment using a syringe filter with a pore size of 0.2 µm (manufactured by Sartorius AG). Fractionation was performed using an AKTA purifier system (manufactured by GE Healthcare) to which a HisTrap™ FF 1 mL column was connected, and using 50 mM sodium phosphate buffer (pH 8.0), 500 mM sodium chloride, and 10% glycerol as adsorption buffers, and 50 mM sodium phosphate buffer (pH 8.0), 500 mM sodium chloride, 10% glycerol, and 500 mM imidazole as elution buffers. Fractions containing leucine dehydrogenase identified by SDS-PAGE were recovered and concentrated using ultrafiltration. […]
Using the purified leucine dehydrogenase thus obtained, analysis of enzyme kinetics based on the Michaelis-Menten formula using HOB as a substrate was performed. As reaction conditions, 100 mM HEPES/KOH (pH 7.5), 200 mM ammonium chloride, 0.2 mM NADH, and 3.7 µg/mL leucine dehydrogenase were used, and a reaction rate at which a concentration of HOB was 3.13, 6.25, 12.5, 25.0, 50.0, and 100 mM was measured. A reaction rate was calculated by measuring a continuous decrease in absorption by NADH at 340 nm using a Varioskan LUX (manufactured by Thermo Fisher Scientific Inc.). […]

T1 sequence (P40176 whole entry): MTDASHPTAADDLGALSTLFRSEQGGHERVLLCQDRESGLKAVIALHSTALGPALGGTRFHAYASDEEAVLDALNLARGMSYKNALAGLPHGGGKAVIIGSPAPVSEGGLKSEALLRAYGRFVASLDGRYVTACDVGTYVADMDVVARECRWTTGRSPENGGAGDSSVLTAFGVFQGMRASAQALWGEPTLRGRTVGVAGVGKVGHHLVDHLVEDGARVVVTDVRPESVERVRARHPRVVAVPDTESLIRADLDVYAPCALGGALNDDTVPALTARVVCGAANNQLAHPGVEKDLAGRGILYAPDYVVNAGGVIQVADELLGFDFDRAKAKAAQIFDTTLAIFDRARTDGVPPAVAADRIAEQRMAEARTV

On to `N[C@@H](CCO)C(=O)O` [L-homoserine], for which the “specific activity of this solution in which the bacterial cells were crushed against L-homoserine” value in assay [1] is given as 0.21 U/mg of protein; in assay [2] it was 0.21 U/mg of protein; in assay [3] it was 0.045 U/mg of protein.

In the case of `O=C(O)C(=O)CCO` [HOB, 4-hydroxy-2-oxobutyric acid], in assay [4] (HOB 3.13-100 mM, read-out: Michaelis constant KM for HOB), the Km (in general, the concentration of substrate that gives half-maximal velocity) is 7.7 mM. In addition, the “catalyst rotation speed kcat” value in assay [4] (HOB as a substrate) came to 2.7 s⁻¹.
